Data reported in patent publication US20230012936A1, “COMBINATION THERAPY USING GLUCAGON AND GLP-1 CO-AGONISTS FOR THE TREATMENT OF OBESITY” (MEDIMMUNE, LLC, priority 2019, published 2023).

Experiments:
clinical = conditions: for Cmax: Dapagliflozin mean Cmax
Protocol: The Cmax and the corresponding tmax were identified from the observed data. Log-linear regression of the terminal phase yielded the terminal rate constant (λz). The area under the plasma concentration time-curve during the dosing interval (AUCτ) was calculated by the log-linear trapezoidal rule. The area under the curve to infinity (AUC0-inf) was calculated as the sum of AUC(o-t) and Ct/z, where Ct is the observed plasma concentration obtained from the log-linear regression analysis of the last quantifiable time point and z is the terminal phase rate constant. Clearance (CL/F) was determined by dose/AUC0-inf, and the terminal half-life (t1/2) was calculated as 0.693/λz.

[1] = Safety: adverse events, laboratory values, vital signs, ECG; type: in vivo, human; conditions: as judged by the investigator
Protocol: Blood samples were collected to evaluate anti-drug antibody (ADA) response to cotadutide. Serum samples were evaluated for ADA using a validated immunoassay. Adverse events (AEs) and serious adverse events (SAEs) were collected from the time of informed consent throughout the treatment period and including the follow-up period. AEs and SAEs were graded by severity and relationship to investigational product and SAEs were assessed for relationship to protocol procedures.

[2] = 10 mg/day PO, cited from earlier work

Impact of cotadutide on dapagliflozin oral absorption (clinical; dapagliflozin 10 mg/day PO): marginal impact
half-life (clinical; human, plasma, oral, 10 mg/day): ~8 h
Cmax (clinical; human, plasma, oral, cotadutide group, Day −1 (cotadutide not yet co-administered)): 117 ng/mL
Cmax (clinical; human, plasma, oral, group receiving dapagliflozin and placebo, Day 7): 92 ng/mL
Cmax (clinical; human, plasma, oral, group receiving dapagliflozin and placebo, Day 14): 95.6 ng/mL
Cmax (clinical; human, plasma, oral, group receiving dapagliflozin and placebo, Day 28): 112 ng/mL
Cmax (clinical; human, plasma, oral, group receiving dapagliflozin and placebo, Day −1): 110 ng/mL
Cmax (clinical; human, plasma, oral, in the presence of cotadutide, Day 7): 84.4 ng/mL
Cmax (clinical; human, plasma, oral, in the presence of cotadutide, Day 14): 61.1 ng/mL
Cmax (clinical; human, plasma, oral, in the presence of cotadutide, Day 28): 94.2 ng/mL
SMILES: CCOc1ccc(Cc2cc([C@@H]3O[C@H](CO)[C@@H](O)[C@H](O)[C@H]3O)ccc2Cl)cc1 [dapagliflozin]
Incidence of dapagliflozin-related TEAEs, cotadutide group [1]: 4.0%
Incidence of dapagliflozin-related TEAEs, placebo group [1]: 8.3%
Dapagliflozin Cmax (literature) ([2]; Dapagliflozin NDA 202293): 120 ng/mL
Dapagliflozin tmax (literature) ([2]; Dapagliflozin NDA 202293): 1 h
Dapagliflozin half-life (literature) ([2]; literature data): 15 h
